Counter-ions that a name gives are not always drawn. Like-named read-outs stand apart in the source and are kept apart here.

In test [1] the target is PIM-1 (Homo sapiens (Human), UniProt P11309). The test is described as follows: PIM-1 Enzyme Assay. As to conditions: 35 μM ATP, 0.25 nM PIM-1. It counts as biochemical. Put shortly:
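Radiometric kinase assay in 20 mM K+MOPS pH 7.4, 10 mM MgCl2, 0.005% Tween-20, 1 mM DTT, 2% DMSO final; 60 min at 22° C, stopped with H3PO4, product captured on P81 filter and counted by scintillation. IC50 from 4-parameter logistic fit of percent of control.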

In test [2] the target is GST-tagged recombinant full-length human PIM-2 (Homo sapiens (Human), UniProt Q9P1W9). The test is described as follows: PIM-2 Enzyme Assay. As to conditions: 4 μM ATP, […] PIM-2.
Sequence of GST-tagged recombinant full-length human PIM-2 (Q9P1W9 whole entry): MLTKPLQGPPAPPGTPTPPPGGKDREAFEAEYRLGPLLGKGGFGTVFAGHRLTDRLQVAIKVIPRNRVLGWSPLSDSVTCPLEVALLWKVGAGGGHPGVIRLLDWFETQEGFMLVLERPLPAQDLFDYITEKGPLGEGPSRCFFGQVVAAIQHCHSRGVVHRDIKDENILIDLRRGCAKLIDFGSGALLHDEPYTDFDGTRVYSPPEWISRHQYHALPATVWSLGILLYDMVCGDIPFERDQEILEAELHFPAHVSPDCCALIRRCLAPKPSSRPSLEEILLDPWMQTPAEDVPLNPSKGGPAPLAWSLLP
Test [3] deals with recombinant rat PIM-3 (Rattus norvegicus (Rat), UniProt O70444). The test is described as follows: PIM-3 Enzyme Assay. To be noted: 30 μM ATP, 0.5 nM PIM-3.

Sequence of PIM-1 (P11309 whole entry, species assumed): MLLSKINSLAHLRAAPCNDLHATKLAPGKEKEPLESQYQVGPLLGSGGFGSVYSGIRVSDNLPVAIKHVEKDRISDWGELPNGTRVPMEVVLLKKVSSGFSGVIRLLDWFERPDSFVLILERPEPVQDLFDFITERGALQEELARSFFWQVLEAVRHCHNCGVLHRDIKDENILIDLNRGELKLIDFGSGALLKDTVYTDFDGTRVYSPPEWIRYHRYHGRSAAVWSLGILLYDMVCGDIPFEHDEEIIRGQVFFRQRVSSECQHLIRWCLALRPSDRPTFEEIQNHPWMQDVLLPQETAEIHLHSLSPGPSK

Take `FC1CCNCCC1Oc1cccc2ccc(-c3nnc4ccccn34)nc12` (single isomer, unassigned) [Example 47, 2-([1,2,4]triazolo[4,3-a]pyridin-3-yl)-8-(-5-fluoroazepan-4-yloxy)quinoline dihydrochloride]: the concentration for half-maximal inhibition (IC50) in test [1] amounted to 32 nM; in test [2] (PIM-2 IC50 (nM)), 1170 nM; in test [3] (PIM-3 IC50 (nM)) it was 41 nM.
With `FC1CCNCCC1Oc1cccc2ccc(-c3nnc4ccccn34)nc12` (single isomer, unassigned) [Example 48, 2-([1,2,4]triazolo[4,3-a]pyridin-3-yl)-8-(5-fluoroazepan-4-yloxy)quinoline dihydrochloride], the 50% inhibitory concentration (IC50) is 0.7 nM in test [1], 147 nM in test [2] (PIM-2 IC50 (nM)) and 4 nM in test [3] (PIM-3 IC50 (nM)).
On the same counts, the results for `FC1CCNCCC1Oc1cccc2ccc(-c3nnc4ccccn34)nc12` (single isomer, unassigned) [Example 49, 2-([1,2,4]triazolo[4,3-a]pyridin-3-yl)-8-(5-fluoroazepan-4-yloxy)quinoline dihydrochloride] are 0.92 nM, 100 nM and 2 nM.
Taken in the same sequence, the figures for `FC1CCNCCC1Oc1cccc2ccc(-c3nnc4ccccn34)nc12` (single isomer, unassigned) [Example 50, 2-([1,2,4]triazolo[4,3-a]pyridin-3-yl)-8-(5-fluoroazepan-4-yloxy)quinoline dihydrochloride] were 12 nM, 290 nM and 8 nM.
Consider `Fc1cc(OC2CCNCCC2F)c2nc(-c3nnc4ccccn34)ccc2c1` (single isomer, unassigned) [Example 90, cis-2-([1,2,4]triazolo[4,3-a]pyridin-3-yl)-6-fluoro-8-5-fluoroazepan-4-yloxy)quinoline], for which the half-inhibitory concentration (IC50) in test [1] was found to be 0.4 nM; in test [2] (read-out: PIM-2 IC50), 131 nM; in test [3] (read-out: PIM-3 IC50), 2 nM.
On the same counts, the results for `Fc1cc(OC2CCNCCC2F)c2nc(-c3nnc4ccccn34)ccc2c1` (single isomer, unassigned) [Example 91, trans-2-([1,2,4]triazolo[4,3-a]pyridin-3-yl)-6-fluoro-8-5-fluoroazepan-4-yloxy)quinoline] are 0.8 nM, 39 nM and 0.9 nM.
In the case of `Cc1ccn2c(-c3ccc4cccc(OC5CCNCCC5F)c4n3)nnc2c1` (single isomer, unassigned) [Example 92, cis-8-5-fluoroazepan-4-yloxy)-2-(7-methyl-[1,2,4]triazolo[4,3-a]pyridin-3-yl)quinoline], the concentration for half-maximal inhibition (IC50) worked out at 1 nM in test [1], 244 nM in test [2] (read-out: PIM-2 IC50) and 3 nM in test [3] (read-out: PIM-3 IC50).
`Cc1ccc2nnc(-c3ccc4cccc(OC5CCNCCC5F)c4n3)n2c1` (single isomer, unassigned) [Example 99, 8-((trans)-5-fluoroazepan-4-yloxy)-2-(6-methyl-[1,2,4]triazolo[4,3-a]pyridin-3-yl)quinoline dihydrochloride]: the IC50 turned out to be 17.4 nM in test [1] (dihydrochloride); 1000 nM in test [2] (read-out: PIM-2 IC50, dihydrochloride); 39.7 nM in test [3] (read-out: PIM-3 IC50, dihydrochloride).
Turning to `Cc1ccc2nnc(-c3ccc4cccc(OC5CCNCCC5F)c4n3)n2c1` (single isomer, unassigned) [Example 100, 8-((trans)-5-fluoroazepan-4-yloxy)-2-(6-methyl-[1,2,4]triazolo[4,3-a]pyridin-3-yl)quinoline], the concentration for half-maximal inhibition (IC50) was 1.5 nM in test [1], 352 nM in test [2] (read-out: PIM-2 IC50) and 2 nM in test [3] (read-out: PIM-3 IC50).
Taken in the same sequence, the figures for `Fc1cc(OC2CCNCCC2F)c2nc(-c3nnc4ccccn34)ccc2c1` (single isomer, unassigned) [Example 120, 2-([1,2,4]triazolo[4,3-a]pyridin-3-yl)-6-fluoro-8-((cis)-5-fluoroazepan-4-yloxy)quinoline] were 11 nM, 959 nM and 10.9 nM.
On the same counts, the results for `Fc1cc(OC2CCNCCC2F)c2nc(-c3nnc4ccccn34)ccc2c1` (single isomer, unassigned) [Example 121, 2-([1,2,4]triazolo[4,3-a]pyridin-3-yl)-6-fluoro-8-(trans-5-fluoroazepan-4-yloxy)quinoline] are 30.5 nM, 520 nM and 16.1 nM.
Taken in the same sequence, the figures for `Cc1ccn2c(-c3ccc4cccc(OC5CCNCCC5F)c4n3)nnc2c1` (single isomer, unassigned) [Example 122, 8-((cis-4,5)-5-fluoroazepan-4-yloxy)-2-(7-methyl-[1,2,4]triazolo[4,3-a]pyridin-3-yl)quinoline] were 17.5 nM, 1000 nM and 23.5 nM.
Regarding `c1cc(OC2CCCNCC2)c2nc(-c3nnc4ccccn34)ccc2c1` (single isomer, unassigned) [Example 127, 2-([1,2,4]triazolo[4,3-a]pyridin-3-yl)-8-(azepan-4-yloxy)quinoline], the results for the IC50 in test [1], in test [2] (read-out: PIM-2 IC50) and in test [3] (read-out: PIM-3 IC50) were 4.8 nM, 438 nM and 6.8 nM, respectively.
Taken in the same sequence, the figures for `c1cc(OC2CCCNCC2)c2nc(-c3nnc4ccccn34)ccc2c1` (single isomer, unassigned) [Example 128, 2-([1,2,4]triazolo[4,3-a]pyridin-3-yl)-8-(azepan-4-yloxy)quinoline] were 19.1 nM, 1000 nM and 79.4 nM.
Take `O[C@H]1CC[C@H](Nc2cccc3ccc(-c4nnc5ccccn45)nc23)CC1` [Example 3, (trans)-4-(2-([1,2,4]Triazolo[4,3-a]pyridin-3-yl)quinolin-8-ylamino)cyclohexanol]: the IC50 worked out at 3 nM in test [1], 807 nM in test [2] (read-out: PIM-2 IC50) and 25 nM in test [3] (read-out: PIM-3 IC50).
Taken in the same sequence, the figures for `c1cc(N[C@H]2CCNC2)c2nc(-c3nnc4ccccn34)ccc2c1` [Example 4, (S)-2-([1,2,4]Triazolo[4,3-a]pyridin-3-yl)-N-(pyrrolidin-3-yl)quinolin-8-amine] were 22 nM, 6020 nM and 105 nM.
On the same counts, the results for `c1cc(N[C@@H]2CCNC2)c2nc(-c3nnc4ccccn34)ccc2c1` [Example 5, (R)-2-([1,2,4]Triazolo[4,3-a]pyridin-3-yl)-N-(pyrrolidin-3-yl)quinolin-8-amine] are 5 nM, 2020 nM and 20 nM.
On the same counts, the results for `CC(C)(C)OC(=O)NCCCNc1cccc2ccc(-c3nnc4ccccn34)nc12` [Example 6, tert-Butyl 3-(2-([1,2,4]triazolo[4,3-a]pyridin-3-yl)quinolin-8-ylamino)propylcarbamate] are 32 nM, 10000 nM and 155 nM.
Take `NCCCNc1cccc2ccc(-c3nnc4ccccn34)nc12` [Example 7, N1-(2-([1,2,4]Triazolo[4,3-a]pyridin-3-yl)quinolin-8-yl)propane-1,3-diamine]: the IC50 was determined as 5 nM in test [1], 1040 nM in test [2] (read-out: PIM-2 IC50) and 35 nM in test [3] (read-out: PIM-3 IC50).
Taken in the same sequence, the figures for `CC(C)CCN(CCCN)c1cccc2ccc(-c3nnc4ccccn34)nc12` [Example 8, N1-(2-([1,2,4]Triazolo[4,3-a]pyridin-3-yl)quinolin-8-yl)-N1-isopentylpropane-1,3-diamine] were 16 nM, 5570 nM and 93 nM.

By IC50 is commonly meant the concentration that inhibits the measured activity by half.

The values above are taken from US8575145B2, “Triazolopyridine compounds as PIM kinase inhibitors” (Array BioPharma Inc., priority 2008, dated 2013).
